Columns and labels:
[1] = molecular target: T1, EGFR L858R/T790M (H1975-clone #36, homozygous) (Homo sapiens, UniProt P00533, L858R/T790M); experiment: EGFR degradation HTRF assay, H1975-clone #36 cells; assay type: cell-based; details: H1975 #36, 16h treatment; for Dmax: NCI-H1975, maximum percentage of degradation
T1 construct: designed to specifically target WT EGFR but preserve the L858R/T790M copy; host or cells: H1975-clone #36
Experimental: H1975-clone #36(L858R/T790M). H1975 cell heterozygously (from ATCC) contains alleles of WT and L858R/T790M EGFR. H1975-clone #36(L858R/T790M) was generated by gene knockout, in which the EGFR targeting sgRNA was designed to specifically target WT EGFR but preserve the L858R/T790M copy. Followed by the gene knockout, the edited H1975 cells were seeded in 96 well plates at the concentration of 1 cell/well, cultured for about 2 weeks to allow single clones formation. The formed clones were screened by DNA sequencing for the desired edition. H1975-clone #36 was confirmed as a homozygous L858R/T790M EGFR clone.
BaF3 WT(wild type), BaF3-LTC(L858R/T790M/C797S) and BaF3-DTC(Del19/T790M/C797S) cells are treated with compounds diluted in 0.2% DMSO cell culture medium and incubate for 16h, 37° C., 5% CO2, H1975-#36, H1975-#28, H1975-#23 and HCC827 cells are treated with compounds diluted in 0.2% DMSO cell culture medium on day 2, incubate for 16h, 37° C., 5% CO2.the final concentriation of compounds in all assay is start with 10 uM, 5-fold dilution, total 8 doses were included.
After 16h treatment, add HTRF lysis buffer to each well; seal the plate and incubate 1 hour at room temperature on a plate shaker; Once the cells are lysed, 16 μL of cell lysate are transferred to a PE 384-well HTRF detection plate; 4 μL of pre-mixed HTRF antibodies are added to each well; Cover the plate with a plate sealer, spin 1000 rpm for 1 min, Incubate overnight at room temperature; Read on BMG PheraStar with HTRF protocol (337 nm-665 nm-620 nm).
The inhibition (degradation) percentage of the compound was calculated by the following equation: Inhibition percentage of Compound=100-100×(Signal-low control)/(High control-low control), wherein signal=each test compound group
High control=Cell group with added DMSO and without compound, indicating microplate readings without EGFR degradation;
Dmax is the maximum percentage of inhibition (degradation).
The IC50 (DC50) value of a compound can be obtained by fitting the following equation
Y=Bottom+(TOP−Bottom)/(1+((IC50/X)^hillslope))
Wherein, X and Y are known values, and IC50, Hillslope, Top and Bottom are the parameters obtained by fitting with software. Y is the inhibition percentage (calculated from the equation), X is the concentration of the compound; IC50 is the concentration of the compound when the 50% inhibition is reached. The smaller the IC50 value is, the stronger the inhibitory ability of the compound is. Vice versa, the higher the IC50 value is, the weaker the inhibitory ability of the compound is; Hillslope represents the slope of the fitted curve, generally around 1*; Bottom represents the minimum value of the curve obtained by data fitting, which is generally 0%±20%; Top represents the maximum value of the curve obtained by data fitting, which is generally 100%±20%. The experimental data were fitted by calculating and analyzing with Dotmatics data analysis software.

EGFR (HCC827 cells) = molecular target: T2, EGFR (HCC827 cells) (Homo sapiens, UniProt P00533, DEL746-750); experiment: EGFR degradation HTRF assay, HCC827 cells; assay type: cell-based; details: HCC827, 16h treatment; for Dmax: maximum percentage of degradation
T2 construct: endogenous in cells; host or cells: HCC827
T2 sequence (P00533 with tags, fused parts or gaps DEL746-750): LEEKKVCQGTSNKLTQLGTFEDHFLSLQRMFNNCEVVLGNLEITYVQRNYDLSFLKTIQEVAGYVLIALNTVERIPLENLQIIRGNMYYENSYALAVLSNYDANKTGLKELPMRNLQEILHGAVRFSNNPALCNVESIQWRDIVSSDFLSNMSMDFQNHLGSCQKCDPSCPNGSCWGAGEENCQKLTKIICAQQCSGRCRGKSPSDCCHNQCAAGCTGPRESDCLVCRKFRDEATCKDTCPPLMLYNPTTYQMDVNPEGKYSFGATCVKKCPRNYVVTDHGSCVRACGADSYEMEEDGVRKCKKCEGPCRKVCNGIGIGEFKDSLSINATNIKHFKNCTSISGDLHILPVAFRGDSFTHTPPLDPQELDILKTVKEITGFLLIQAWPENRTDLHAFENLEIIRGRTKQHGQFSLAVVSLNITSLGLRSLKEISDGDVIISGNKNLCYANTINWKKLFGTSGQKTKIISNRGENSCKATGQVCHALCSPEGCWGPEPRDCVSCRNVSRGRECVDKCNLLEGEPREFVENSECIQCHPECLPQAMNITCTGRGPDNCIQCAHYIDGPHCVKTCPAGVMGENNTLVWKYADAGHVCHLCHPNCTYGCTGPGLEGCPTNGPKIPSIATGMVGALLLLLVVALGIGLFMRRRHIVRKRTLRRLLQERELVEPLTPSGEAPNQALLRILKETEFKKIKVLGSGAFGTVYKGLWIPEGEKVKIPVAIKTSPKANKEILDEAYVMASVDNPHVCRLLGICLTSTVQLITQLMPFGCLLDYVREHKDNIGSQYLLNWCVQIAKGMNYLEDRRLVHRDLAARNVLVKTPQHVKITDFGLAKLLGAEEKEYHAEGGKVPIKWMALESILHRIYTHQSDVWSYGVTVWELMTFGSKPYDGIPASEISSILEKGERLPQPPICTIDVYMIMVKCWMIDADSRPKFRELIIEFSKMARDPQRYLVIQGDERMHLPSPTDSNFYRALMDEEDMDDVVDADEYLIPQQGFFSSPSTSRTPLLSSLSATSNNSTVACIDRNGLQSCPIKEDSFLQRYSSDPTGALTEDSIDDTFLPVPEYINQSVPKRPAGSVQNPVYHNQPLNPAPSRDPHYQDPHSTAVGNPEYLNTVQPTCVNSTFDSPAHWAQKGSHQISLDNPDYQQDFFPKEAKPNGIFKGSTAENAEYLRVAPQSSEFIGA
Procedure, shortened: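 Cells treated 16 h at 37 °C, 5% CO2 in medium with 0.2% DMSO; top final concentration 10 uM, 5-fold dilution, 8 doses. Lysates read by HTRF (665/620 nm); degradation % versus DMSO high control, DC50 from four-parameter fit, Dmax as maximal degradation.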

T1 sequence (P00533 25-1210 T790M/L858R): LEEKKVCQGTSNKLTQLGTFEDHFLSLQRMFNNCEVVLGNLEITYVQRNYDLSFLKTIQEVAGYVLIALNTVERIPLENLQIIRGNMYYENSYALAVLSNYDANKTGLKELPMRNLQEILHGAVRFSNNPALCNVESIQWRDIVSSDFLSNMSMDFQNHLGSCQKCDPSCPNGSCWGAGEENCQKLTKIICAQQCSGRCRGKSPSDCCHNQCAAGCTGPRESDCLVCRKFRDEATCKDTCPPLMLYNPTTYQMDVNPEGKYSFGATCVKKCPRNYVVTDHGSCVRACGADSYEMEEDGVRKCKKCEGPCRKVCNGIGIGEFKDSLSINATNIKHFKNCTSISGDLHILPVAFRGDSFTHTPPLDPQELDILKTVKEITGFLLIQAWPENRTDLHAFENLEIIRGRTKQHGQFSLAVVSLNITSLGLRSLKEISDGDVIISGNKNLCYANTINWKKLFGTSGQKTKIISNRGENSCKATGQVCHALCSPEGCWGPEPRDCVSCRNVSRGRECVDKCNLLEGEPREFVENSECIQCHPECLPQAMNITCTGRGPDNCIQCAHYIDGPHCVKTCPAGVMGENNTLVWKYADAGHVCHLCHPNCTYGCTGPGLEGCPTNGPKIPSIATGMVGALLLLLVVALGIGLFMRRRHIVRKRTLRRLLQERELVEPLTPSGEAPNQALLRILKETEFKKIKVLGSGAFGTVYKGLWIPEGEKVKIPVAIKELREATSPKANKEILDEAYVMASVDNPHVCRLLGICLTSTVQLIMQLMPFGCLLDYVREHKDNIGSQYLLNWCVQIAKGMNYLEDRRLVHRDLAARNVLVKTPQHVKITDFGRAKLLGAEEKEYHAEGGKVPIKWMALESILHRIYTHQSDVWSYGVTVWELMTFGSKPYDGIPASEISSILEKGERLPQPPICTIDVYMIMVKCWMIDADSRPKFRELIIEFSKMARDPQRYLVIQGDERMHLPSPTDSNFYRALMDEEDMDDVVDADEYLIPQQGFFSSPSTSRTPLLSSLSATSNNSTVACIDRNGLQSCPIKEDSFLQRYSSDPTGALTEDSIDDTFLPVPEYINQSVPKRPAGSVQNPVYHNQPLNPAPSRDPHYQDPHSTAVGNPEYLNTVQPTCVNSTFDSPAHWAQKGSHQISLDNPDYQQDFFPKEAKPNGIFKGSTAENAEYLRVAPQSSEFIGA

Question: Which results are given for `COc1cc(N2CCC(N(C)CCCOc3ccc(N4CCC(=O)NC4=O)cc3)CC2)c(C)cc1Nc1ncc(Br)c(Nc2ccc3nccnc3c2P(C)(C)=O)n1` [Example 85, 1-(4-(3-((1-(4-((5-bromo-4-((5-(dimethylphosphoryl)quinoxalin-6-yl)amino)pyrimidin-2-yl)amino)-5-methoxy-2-methylphenyl)piperidin-4-yl)(methyl)amino)propoxy)phenyl)dihydropyrimidine-2,4(1H,3H)-dione]?
Answer: DC50 [1]: > 10000 nM; Dmax [1]: 20.9%; DC50 (EGFR (HCC827 cells)): 73.3 nM; Dmax (EGFR (HCC827 cells)): 75%

Question: For `COc1cc(N2CCC(N3CCN(CCC4CCN(c5ccc(N6CCC(=O)NC6=O)c(F)c5)CC4)CC3)CC2)ccc1Nc1ncc(Cl)c(Nc2ccccc2N(C)S(C)(=O)=O)n1` [Example 125, N-(2-((5-chloro-2-((4-(4-(4-(2-(1-(4-(2,4-dioxotetrahydropyrimidin-1(2H)-yl)-3-fluorophenyl)piperidin-4-yl)ethyl)piperazin-1-yl)piperidin-1-yl)-2-methoxyphenyl)amino)pyrimidin-4-yl)amino)phenyl)-N-methylmethanesulfonamide], which DC50 [1] is on record?
Answer: > 10000 nM

Question: And the Dmax [1]?
Answer: 27.2%

Question: What about the DC50 (EGFR (HCC827 cells)) of the same molecule?
Answer: 103 nM

Question: And the Dmax (EGFR (HCC827 cells))?
Answer: 73.5%

Question: What does the source list for `COc1cc(N2CCC(N3CCN(CCc4ccc(C5CCC(=O)NC5=O)cc4)CC3)CC2)ccc1Nc1ncc(Cl)c(Nc2ccccc2P(C)(C)=O)n1` (stereo not drawn) [Example 104, 3-(4-(2-(4-(1-(4-((5-chloro-4-((2-(dimethylphosphoryl)phenyl)amino)pyrimidin-2-yl)amino)-3-methoxyphenyl)piperidin-4-yl)piperazin-1-yl)ethyl)phenyl)piperidine-2,6-dione]?
Answer: DC50 [1]: 5.89 nM; Dmax [1]: 74.7%; DC50 (EGFR (HCC827 cells)): 17.7 nM; Dmax (EGFR (HCC827 cells)): 83.4%

Question: Which results are given for `COc1cc(N2CCN(C3CN(C(=O)c4cnc(C(=O)Nc5ccc(C6CCC(=O)NC6=O)cc5)cn4)C3)CC2)ccc1Nc1ncc(Cl)c(Nc2ccccc2P(C)(C)=O)n1` (stereo not drawn) [Example 116, 5-(3-(4-(4-((5-chloro-4-((2-(dimethylphosphoryl)phenyl)amino)pyrimidin-2-yl)amino)-3-methoxyphenyl)piperazin-1-yl)azetidine-1-carbonyl)-N-(4-(2,6-dioxopiperidin-3-yl)phenyl)pyrazine-2-carboxamide]?
Answer: DC50 [1]: 6.63 nM; Dmax [1]: 62%; DC50 (EGFR (HCC827 cells)): 17.9 nM; Dmax (EGFR (HCC827 cells)): 75.4%

Question: `COc1cc(N2CCC(N3CCN(CCC4CCN(c5ccc(C6CCC(=O)NC6=O)cc5)CC4)CC3)CC2)ccc1Nc1ncc(Cl)c(Nc2ccccc2P(C)(C)=O)n1` (stereo not drawn) [Example 106, 3-(4-(4-(2-(4-(1-(4-((5-chloro-4-((2-(dimethylphosphoryl)phenyl)amino)pyrimidin-2-yl)amino)-3-methoxyphenyl)piperidin-4-yl)piperazin-1-yl)ethyl)piperidin-1-yl)phenyl)piperidine-2,6-dione] was tested. Which DC50 [1] did it give?
Answer: 8.32 nM

Question: What about the Dmax [1] of the same molecule?
Answer: 63%

Question: What about the DC50 (EGFR (HCC827 cells)) of the same molecule?
Answer: 7.06 nM

Question: What about the Dmax (EGFR (HCC827 cells)) of the same molecule?
Answer: 63.2%

Question: With `CCc1cc(Nc2ncc(Br)c(Nc3ccc4nccnc4c3P(C)(C)=O)n2)c(OC)cc1N1CCC(N2CCN(CCOCCC(=O)N[C@H](C(=O)N3C[C@H](O)C[C@H]3C(=O)NCc3ccc(-c4scnc4C)cc3)C(C)(C)C)CC2)CC1` [Example 103, (2S,4R)-1-((S)-2-(3-(2-(4-(1-(4-((5-bromo-4-((5-(dimethylphosphoryl)quinoxalin-6-yl)amino)pyrimidin-2-yl)amino)-2-ethyl-5-methoxyphenyl)piperidin-4-yl)piperazin-1-yl)ethoxy)propanamido)-3,3-dimethylbutanoyl)-4-hydroxy-N-(4-(4-methylthiazol-5-yl)benzyl)pyrrolidine-2-carboxamide] as the molecule, how does the DC50 [1] read?
Answer: 43.1 nM

Question: And the Dmax [1]?
Answer: 79.6%

Question: What about the DC50 (EGFR (HCC827 cells)) of the same molecule?
Answer: 28.8 nM

Question: What about the Dmax (EGFR (HCC827 cells)) of the same molecule?
Answer: 84.2%

Question: `COc1cc(N2CCN(CC3CCN(c4ccc(N5CCC(=O)NC5=O)cc4F)CC3)CC2)c(C)cc1Nc1ncc(Br)c(Nc2ccc3nccnc3c2P(C)(C)=O)n1` [Example 97, 1-(4-(4-((4-(4-((5-bromo-4-((5-(dimethylphosphoryl)quinoxalin-6-yl)amino)pyrimidin-2-yl)amino)-5-methoxy-2-methylphenyl)piperazin-1-yl)methyl)piperidin-1-yl)-3-fluorophenyl)dihydropyrimidine-2,4(1H,3H)-dione] was tested. Which DC50 [1] did it give?
Answer: > 10000 nM

Question: And the Dmax [1]?
Answer: 11.2%

Question: And the DC50 (EGFR (HCC827 cells))?
Answer: 118 nM

Question: What about the Dmax (EGFR (HCC827 cells)) of the same molecule?
Answer: 62.8%

Question: How did the DC50 [1] turn out when `CCc1cc(Nc2ncc(Br)c(Nc3ccc4nccnc4c3P(C)(C)=O)n2)c(OC)cc1N1CCC(N2CCN(CCc3ccc(C4CCC(=O)NC4=O)c(C)c3)CC2)CC1` (stereo not drawn) [Example 3, 3-(4-(2-(4-(1-(4-((5-bromo-4-((5-(dimethylphosphoryl)quinoxalin-6-yl)amino)pyrimidin-2-yl)amino)-2-ethyl-5-methoxyphenyl)piperidin-4-yl)piperazin-1-yl)ethyl)-2-methylphenyl)piperidine-2,6-dione] was run?
Answer: > 10000 nM

Question: What about the Dmax [1] of the same molecule?
Answer: 45.1%

Question: And the DC50 (EGFR (HCC827 cells))?
Answer: 14.3 nM

Question: And the Dmax (EGFR (HCC827 cells))?
Answer: 72.3%

Question: `CCc1cc(Nc2ncc(Br)c(Nc3ccc4nccnc4c3P(C)(C)=O)n2)c(OC)cc1N1CCC(N2CCN(CCc3ccc(C4CCC(=O)NC4=O)cn3)CC2)CC1` (stereo not drawn) [Example 13, 3-(6-(2-(4-(1-(4-((5-bromo-4-((5-(dimethylphosphoryl)quinoxalin-6-yl)amino)pyrimidin-2-yl)amino)-2-ethyl-5-methoxyphenyl)piperidin-4-yl)piperazin-1-yl)ethyl)pyridin-3-yl)piperidine-2,6-dione] was tested. Which DC50 [1] did it give?
Answer: > 10000 nM

Question: And the Dmax [1]?
Answer: 42.8%

Question: And the DC50 (EGFR (HCC827 cells))?
Answer: 9.48 nM

Question: What about the Dmax (EGFR (HCC827 cells)) of the same molecule?
Answer: 78.9%

Question: For `CCc1cc(Nc2ncc(Br)c(Nc3ccc4nccnc4c3P(C)(C)=O)n2)c(OC)cc1N1CCC(N2CCN(CCc3ccc(C4CCC(=O)NC4=O)c(OC)c3)CC2)CC1` (stereo not drawn) [Example 2, 3-(4-(2-(4-(1-(4-((5-bromo-4-((5-(dimethylphosphoryl)quinoxalin-6-yl)amino)pyrimidin-2-yl)amino)-2-ethyl-5-methoxyphenyl)piperidin-4-yl)piperazin-1-yl)ethyl)-2-methoxyphenyl)piperidine-2,6-dione], which DC50 [1] is on record?
Answer: 3720 nM

Question: What about the Dmax [1] of the same molecule?
Answer: 53.6%

Question: And the DC50 (EGFR (HCC827 cells))?
Answer: 18 nM

Question: What about the Dmax (EGFR (HCC827 cells)) of the same molecule?
Answer: 78.5%

Question: How did the DC50 [1] turn out when `COc1cc(N2CCC(N3CCN(CCCOc4ccc(OC5CCC(=O)NC5=O)cc4)CC3)CC2)ccc1Nc1ncc(Cl)c(Nc2ccccc2N(C)S(C)(=O)=O)n1` (stereo not drawn) [Example 127, N-(2-((5-chloro-2-((4-(4-(4-(3-(4-((2,6-dioxopiperidin-3 yl)oxy)phenoxy)propyl)piperazin-1-yl)piperidin-1-yl)-2-methoxyphenyl)amino)pyrimidin-4-yl)amino)phenyl)-N-methylmethanesulfonamide] was run?
Answer: 11.9 nM

Question: And the Dmax [1]?
Answer: 64.7%

Question: And the DC50 (EGFR (HCC827 cells))?
Answer: 35.9 nM

Question: What about the Dmax (EGFR (HCC827 cells)) of the same molecule?
Answer: 71.4%

Question: With `COc1cc(N2CCN(C3CN(C(=O)c4cnc(C(=O)Nc5ccc(C6CCC(=O)NC6=O)cc5)cn4)C3)CC2)c(C)cc1Nc1ncc(Br)c(Nc2ccc3nccnc3c2P(C)(C)=O)n1` (stereo not drawn) [Example 100, 5-(3-(4-(4-((5-bromo-4-((5-(dimethylphosphoryl)quinoxalin-6-yl)amino)pyrimidin-2-yl)amino)-5-methoxy-2-methylphenyl)piperazin-1-yl)azetidine-1-carbonyl)-N-(4-(2,6-dioxopiperidin-3-yl)phenyl)pyrazine-2-carboxamide] as the molecule, how does the DC50 [1] read?
Answer: 8.7 nM

Question: And the Dmax [1]?
Answer: 62.6%

Question: What about the DC50 (EGFR (HCC827 cells)) of the same molecule?
Answer: 6.34 nM

Question: And the Dmax (EGFR (HCC827 cells))?
Answer: 76.9%

— patent US20230265116A1, “DEGRADATION OF (EGFR) BY CONJUGATION OF EGFR INHIBITORS WITH E3 LIGASE LIGAND AND METHODS OF USE” (BEIGENE, LTD., priority 2020, published 2023)
